This note sets out measurements from patent US11149037B2, “Pyrazole MAGL inhibitors” (H. Lundbeck A/S, priority 2017, dated 2021).

Usually IC50 stands for the point on the concentration scale where inhibition reaches its midpoint.

Holding throughout (format): biochemical
Assay [1] has as its target FAAH (Mus musculus (Mouse), UniProt O08914). The assay can be described thus: In vitro competitive activity-based protein profiling, mouse proteomes (brain membrane fraction or cell lysates). The settings on record: mouse proteome, read-out: FAAH % inh. 1 μM (mouse). The gist of the method: (§1)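 Activity of MAGL and FAAH was quantified from fluorescent gel band intensities. Beforehand, inhibitors at several concentrations competed against subsequent probe labelling (FP-Rh, JW912 or HT-01) in species-matched proteomes, each step 30 min at 37° C.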

Assay [2] has as its target MAGL (Mus musculus (Mouse), UniProt O35678). The description is as above. As to conditions: mouse proteome, read-out: MAGL % inh. 1 μM (mouse). The gist of the method: as §1
In assay [3] the target is MAGL (Homo sapiens (Human), UniProt Q99685). The experiment in a line: In vitro competitive activity-based protein profiling, human proteomes (prefrontal cortex or PC3 cell membrane fractions). The settings on record: human proteome; for inhibition at 1 µM: read-out: MAGL % inh. 1 μM (human). An outline of the steps:
as §1

Assay [4] deals with FAAH (Homo sapiens (Human), UniProt O00519). The assay is described as above. The settings on record: human proteome; for inhibition at 1 µM: read-out: FAAH % inh. 1 μM (human). The gist of the method:
as §1

Chain of FAAH (Homo sapiens (Human), UniProt O00519) (O00519 whole entry): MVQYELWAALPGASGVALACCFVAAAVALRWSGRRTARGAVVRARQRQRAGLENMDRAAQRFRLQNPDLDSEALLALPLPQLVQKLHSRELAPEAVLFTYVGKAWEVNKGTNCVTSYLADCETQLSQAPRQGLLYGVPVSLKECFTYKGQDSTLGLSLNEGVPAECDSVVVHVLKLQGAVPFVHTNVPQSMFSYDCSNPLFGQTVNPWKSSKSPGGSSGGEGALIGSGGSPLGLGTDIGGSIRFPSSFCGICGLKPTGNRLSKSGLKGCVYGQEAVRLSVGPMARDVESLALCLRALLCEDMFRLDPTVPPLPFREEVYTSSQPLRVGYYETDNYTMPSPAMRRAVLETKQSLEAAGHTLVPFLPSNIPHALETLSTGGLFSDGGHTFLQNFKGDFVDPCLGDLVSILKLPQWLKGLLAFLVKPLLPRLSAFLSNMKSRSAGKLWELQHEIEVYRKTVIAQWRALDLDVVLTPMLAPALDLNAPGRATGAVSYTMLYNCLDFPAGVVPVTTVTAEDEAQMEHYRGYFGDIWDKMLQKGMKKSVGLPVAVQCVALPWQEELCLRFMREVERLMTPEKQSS
Chain of MAGL (Mus musculus (Mouse), UniProt O35678) (O35678 whole entry): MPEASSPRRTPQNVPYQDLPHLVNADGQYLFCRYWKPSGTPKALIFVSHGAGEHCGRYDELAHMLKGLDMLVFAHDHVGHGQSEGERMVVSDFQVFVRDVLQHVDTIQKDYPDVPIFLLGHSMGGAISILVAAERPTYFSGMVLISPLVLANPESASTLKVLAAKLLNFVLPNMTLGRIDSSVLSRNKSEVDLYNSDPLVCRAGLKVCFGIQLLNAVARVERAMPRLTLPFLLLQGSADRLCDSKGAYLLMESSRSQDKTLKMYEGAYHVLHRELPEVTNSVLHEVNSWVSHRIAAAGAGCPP
Chain of FAAH (Mus musculus (Mouse), UniProt O08914) (O08914 whole entry): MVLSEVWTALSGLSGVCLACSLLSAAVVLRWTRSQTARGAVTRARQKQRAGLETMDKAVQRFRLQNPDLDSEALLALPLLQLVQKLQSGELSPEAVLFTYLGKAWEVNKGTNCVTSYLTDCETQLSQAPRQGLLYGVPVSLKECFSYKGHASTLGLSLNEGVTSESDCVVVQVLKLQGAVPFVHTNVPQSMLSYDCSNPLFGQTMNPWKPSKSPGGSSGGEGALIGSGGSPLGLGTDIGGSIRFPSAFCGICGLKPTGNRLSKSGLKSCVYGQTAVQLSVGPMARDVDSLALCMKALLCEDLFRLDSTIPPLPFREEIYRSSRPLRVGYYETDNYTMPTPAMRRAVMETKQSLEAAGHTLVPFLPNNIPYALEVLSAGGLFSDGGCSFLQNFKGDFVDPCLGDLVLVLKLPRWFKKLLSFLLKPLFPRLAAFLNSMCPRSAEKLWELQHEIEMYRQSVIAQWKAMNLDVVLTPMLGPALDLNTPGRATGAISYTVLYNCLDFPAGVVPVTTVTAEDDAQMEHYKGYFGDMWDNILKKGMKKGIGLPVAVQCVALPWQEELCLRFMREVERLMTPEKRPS
Chain of MAGL (Homo sapiens (Human), UniProt Q99685) (Q99685 whole entry): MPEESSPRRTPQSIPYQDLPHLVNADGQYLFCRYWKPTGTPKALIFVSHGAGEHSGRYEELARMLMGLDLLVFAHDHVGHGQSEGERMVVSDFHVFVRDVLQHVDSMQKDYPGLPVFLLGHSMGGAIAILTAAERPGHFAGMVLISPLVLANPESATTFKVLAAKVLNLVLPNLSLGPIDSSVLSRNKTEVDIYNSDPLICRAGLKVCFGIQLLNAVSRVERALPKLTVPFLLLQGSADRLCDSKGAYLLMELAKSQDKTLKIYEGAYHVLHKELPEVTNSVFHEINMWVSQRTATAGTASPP

For `CS(=O)(=O)Nc1ccn(C(=O)N2CC3CN(Cc4ccc(Cl)c(N5CC6COCC6C5)c4)CC3C2)n1` (stereo not drawn) [Example 140, N-(1-(5-(4-chloro-3-(Tetrahydro-1H-furo[3,4-c]pyrrol-5(3H)-yl)benzyl)octahydropyrrolo[3,4-c]pyrrole-2-carbonyl)-1H-pyrazol-3-yl)methanesulfonamide], the inhibition at 1 µM lay in the range of 0 to 25% on FAAH [1], 0 to 25% at MAGL [2], 25 to 50% at MAGL [3] and 0 to 25% on FAAH [4].

In the case of `C[C@@H]1CN(Cc2ccc(Cl)c(N3CCC(F)CC3)c2)CCN1C(=O)n1ccc(NS(C)(=O)=O)n1` [Example 142, (R)-N-(1-(4-(4-Chloro-3-(4-fluoropiperidin-1-yl)benzyl)-2-methylpiperazine-1-carbonyl)-1H-pyrazol-3-yl)methanesulfonamide], the inhibition at 1 µM is 0 to 25% on FAAH [1], > 75% at MAGL [2], > 75% at MAGL [3] and 0 to 25% at FAAH [4].

In the case of `CC(=O)Nc1ccn(C(=O)N2CCN(Cc3cc(Cl)cc(Cl)c3)CC2)n1` [Example 144, N-(1-(4-(3,5-Dichlorobenzyl)piperazine-1-carbonyl)-1H-pyrazol-3-yl)acetamide], the inhibition at 1 µM on FAAH [1] is 0 to 25%; on MAGL [2], > 75%; at MAGL [3] it was > 75%; on FAAH [4], 0 to 25%.

Regarding `CC(=O)Nc1ccn(C(=O)N2CC3CN(Cc4cc(F)cc(Cl)c4)CC3C2)n1` (stereo not drawn) [Example 145, N-(1-(5-(3-Chloro-5-fluorobenzyl)octahydropyrrolo[3,4-c]pyrrole-2-carbonyl)-1H-pyrazol-3-yl)acetamide], the inhibition at 1 µM on FAAH [1], at MAGL [2], on MAGL [3] and on FAAH [4] was > 75% in each case. In addition, the IC50 at MAGL [3] is < 0.1 µM; at FAAH [4], 0.1 to 1 µM.

Regarding `CC(=O)Nc1ccn(C(=O)N2CC3CN(Cc4cc(Cl)cc(C(F)(F)F)c4)CC3C2)n1` (stereo not drawn) [Example 146, N-(1-(5-(3-Chloro-5-(trifluoromethyl)benzyl)octahydropyrrolo[3,4-c]pyrrole-2-carbonyl)-1H-pyrazol-3-yl)acetamide], the inhibition at 1 µM at FAAH [1], at MAGL [2], at MAGL [3] and at FAAH [4] was > 75% in each case. For the same compound, the results for the IC50 on MAGL [3] and on FAAH [4] were < 0.1 µM and 1 to 10 µM, respectively.

Take `CS(=O)(=O)Nc1ccn(C(=O)N2CCN(Cc3ccc(Cl)c(N4CCC(F)(F)CC4)c3)CC2)n1` [Example 147, N-(1-(4-(4-Chloro-3-(4,4-difluoropiperidin-1-yl)benzyl)piperazine-1-carbonyl)-1H-pyrazol-3-yl)methanesulfonamide]: the inhibition at 1 µM on FAAH [1] is 0 to 25%; at MAGL [2], > 75%; at MAGL [3] it was > 75%; at FAAH [4] it was 0 to 25%.

`CS(=O)(=O)Nc1ccn(C(=O)N2CCN(Cc3cccc(Oc4ccc(Cl)cc4)c3)CC2)n1` [Example 149, N-(1-(4-(3-(4-Chlorophenoxy)benzyl)piperazine-1-carbonyl)-1H-pyrazol-3-yl)methanesulfonamide]: the inhibition at 1 µM at FAAH [1], on MAGL [2], at MAGL [3] and on FAAH [4] was > 75% each time. Besides, the IC50 at MAGL [3] is < 0.1 µM; at FAAH [4], 0.1 to 1 µM.

Turning to `C[C@H]1CCCN1c1cc(CN2CCN(C(=O)n3ccc(NS(C)(=O)=O)n3)CC2)ccc1C(F)(F)F` [Example 151, (S)-N-(1-(4-(3-(2-Methylpyrrolidin-1-yl)-4-(trifluoromethyl)benzyl)piperazine-1-carbonyl)-1H-pyrazol-3-yl)methanesulfonamide], the inhibition at 1 µM on FAAH [1] was 0 to 25%; at MAGL [2], > 75%; on MAGL [3] it was > 75%; at FAAH [4] it was 0 to 25%.

`CCN1CC2CN(c3cc(CN4CCN(C(=O)n5ccc(NS(C)(=O)=O)n5)CC4)ccc3Cl)CC2C1` (stereo not drawn) [Example 153, N-(1-(4-(4-Chloro-3-(5-ethylhexahydropyrrolo[3,4-c]pyrrol-2(1H)-yl)benzyl)piperazine-1-carbonyl)-1H-pyrazol-3-yl)methanesulfonamide]: the inhibition at 1 µM at FAAH [1] is 0 to 25%; at MAGL [2], 50 to 75%; at MAGL [3] it was > 75%; at FAAH [4], 0 to 25%.

In the case of `CC(=O)Nc1ccn(C(=O)N2CCC3(CCCN3C(=O)c3cc4ccc(C(F)(F)F)cc4s3)CC2)n1` [Example 155, N-(1-(1-(6-(Trifluoromethyl)benzo[b]thiophene-2-carbonyl)-1,8-diazaspiro[4.5]decane-8-carbonyl)-1H-pyrazol-3-yl)acetamide], the inhibition at 1 µM on FAAH [1] is > 75%; at MAGL [2] it was > 75%; at MAGL [3] it was > 75%; at FAAH [4], 0 to 25%.

In the case of `CS(=O)(=O)Nc1ccn(C(=O)N2CCC3(CCN(Cc4ccc(N5CC6COCC6C5)c(Cl)c4)C3)CC2)n1` (stereo not drawn) [Example 160, N-(1-(2-(3-Chloro-4-(tetrahydro-1H-furo[3,4-c]pyrrol-5(3H)-yl)benzyl)-2,8-diazaspiro[4.5]decane-8-carbonyl)-1H-pyrazol-3-yl)methanesulfonamide], the inhibition at 1 µM at FAAH [1] is 0 to 25%; on MAGL [2], 0 to 25%; on MAGL [3] it was 50 to 75%; on FAAH [4] it was 25 to 50%.

With `CS(=O)(=O)Nc1ccn(C(=O)N2CCC3(CCN(Cc4ccccc4Cl)C3)CC2)n1` [Example 162, N-(1-(2-(2-Chlorobenzyl)-2,8-diazaspiro[4.5]decane-8-carbonyl)-1H-pyrazol-3-yl)methanesulfonamide], the inhibition at 1 µM on FAAH [1] was 0 to 25%; at MAGL [2], 0 to 25%; at MAGL [3], > 75%; at FAAH [4], 0 to 25%.

With `CS(=O)(=O)Nc1ccn(C(=O)N2CCC3(CCN(Cc4cccc(Cl)c4)C3)CC2)n1` [Example 163, N-(1-(2-(3-Chlorobenzyl)-2,8-diazaspiro[4.5]decane-8-carbonyl)-1H-pyrazol-3-yl)methanesulfonamide], the inhibition at 1 µM at FAAH [1] is 0 to 25%; at MAGL [2], 0 to 25%; on MAGL [3] it was > 75%; at FAAH [4], 0 to 25%.

`CS(=O)(=O)Nc1ccn(C(=O)N2CCC3(CCN(Cc4ccc(Cl)cc4)C3)CC2)n1` [Example 164, N-(1-(2-(4-Chlorobenzyl)-2,8-diazaspiro[4.5]decane-8-carbonyl)-1H-pyrazol-3-yl)methanesulfonamide]: the inhibition at 1 µM at FAAH [1] is 0 to 25%; on MAGL [2], 0 to 25%; on MAGL [3], > 75%; at FAAH [4] it was 0 to 25%.

Take `CC(=O)Nc1ccn(C(=O)N2CC3CN(Cc4cc(N5CCOCC5)cc(C(F)(F)F)c4)CC3C2)n1` (stereo not drawn) [Example 166, N-(1-(5-(3-Morpholino-5-(trifluoromethyl)benzyl)octahydropyrrolo[3,4-c]pyrrole-2-carbonyl)-1H-pyrazol-3-yl)acetamide]: the inhibition at 1 µM at FAAH [1] was > 75%; at MAGL [2], > 75%; on MAGL [3] it was > 75%; on FAAH [4] it was 0 to 25%.
